# Test results reported in article PMC8640094, “Diaportones A–C: Three New Metabolites From Endophytic Fungus Diaporthe foeniculina BZM-15” (Frontiers in Chemistry, 2021).
# Key:
# [1] = test system: MRSA (JCSC 3063); test: Antibacterial assay, broth macrodilution, MRSA; format: cell-based; conditions: Staphylococcus aureus
# Protocol: Antibacterial activity of all compounds against MRSA (JCSC 3063) and E. coli (ATCC 8739) was tested by the broth […] method on 96-well plates according to the CLSI recommendation ([Li et al., 2014]).
# [2] = test system: three human cancer cell lines (SF-268, MCF-7, and HepG2); test: MTT cytotoxicity, summary over three human cancer cell lines; format: cell-based; conditions: for IC50: Homo sapiens, read-out: IC50 values, range over three cell lines
# Protocol: (§1) The cytotoxicity of all compounds against three human tumor cell lines, SF-268 (CNS cancer), MCF-7 (breast cancer), and HepG2 (hepatoma cancer), and normal cell line LX-2 was tested using the MTT assay. Adriamycin was used as a positive control. All cells were seeded into 96-well plates at 5 × 10^4 cells/ml and incubated at 37°C under a 5% CO2 atmosphere for 24 h. Then, the tested compounds were added. After 72 h, MTT solution was added into each well, which was further incubated. The cell-free supernatant was removed and formazan crystals were subsequently dissolved in DMSO. Optical density (OD) was recorded at 490 nm on a microplate reader to calculate the IC50 values.
# [3] = test system: SF-268 (CNS cancer); test: MTT cytotoxicity assay, SF-268 cells; format: cell-based, human; conditions: Homo sapiens; for inhibition at 1 µM / inhibition at 2 µM / inhibition at 4 µM / inhibition at 8 µM / inhibition at 16 µM / inhibition at 32 µM / inhibition at 64 µM / inhibition at 128 µM: SF-268, 72 h, SF268 cells, triplicate values, read-out: cell inhibition; for inhibition at 1 µM: c 1.00 μM; for inhibition at 2 µM: c 2.00 μM; for inhibition at 4 µM: c 4.00 μM; for inhibition at 8 µM: c 8.00 μM; for inhibition at 16 µM: c 16.00 μM; for inhibition at 32 µM: c 32.00 μM; for inhibition at 64 µM: c 64.00 μM; for inhibition at 128 µM: c 128.00 μM; for IC50: SF-268, MTT, 72 h, mean ± SD (n = 3), read-out: IC50 SF268
# Protocol: as §1
# [4] = test system: MCF-7 (breast cancer); test: MTT cytotoxicity assay, MCF-7 cells; format: cell-based, human; conditions: Homo sapiens; for inhibition at 1 µM / inhibition at 2 µM / inhibition at 4 µM / inhibition at 8 µM / inhibition at 16 µM / inhibition at 32 µM / inhibition at 64 µM / inhibition at 128 µM: MCF7, 72 h, three replicates, read-out: cell inhibition; for inhibition at 1 µM: MCF-7, c 1.00 μM; for inhibition at 2 µM: MCF-7, c 2.00 μM; for inhibition at 4 µM: MCF-7, c 4.00 μM; for inhibition at 8 µM: MCF-7, c 8.00 μM; for inhibition at 16 µM: MCF-7, c 16.00 μM; for inhibition at 32 µM: MCF-7, c 32.00 μM; for inhibition at 64 µM: MCF-7, c 64.00 μM; for inhibition at 128 µM: MCF-7, c 128.00 μM; for IC50: MCF7, MTT, 72 h, mean ± SD (n = 3)
# Protocol: as §1, with “Adriamycin was used as a positive control.” left out
# [5] = test system: normal cell line LX-2; test: MTT cytotoxicity assay, normal cell line LX-2; format: cell-based; conditions: for inhibition at 1 µM / inhibition at 2 µM / inhibition at 4 µM / inhibition at 8 µM / inhibition at 16 µM / inhibition at 32 µM / inhibition at 64 µM / inhibition at 128 µM / IC50: 72 h; for inhibition at 1 µM: LX-2, c 1.00 μM; for inhibition at 1 µM / inhibition at 2 µM / inhibition at 4 µM / inhibition at 8 µM / inhibition at 16 µM / inhibition at 32 µM / inhibition at 64 µM / inhibition at 128 µM: three replicates; for inhibition at 2 µM: LX-2, c 2.00 μM; for inhibition at 4 µM: LX-2, c 4.00 μM; for inhibition at 8 µM: LX-2, c 8.00 μM; for inhibition at 16 µM: LX-2, c 16.00 μM; for inhibition at 32 µM: LX-2, c 32.00 μM; for inhibition at 64 µM: LX-2, c 64.00 μM; for inhibition at 128 µM: LX-2, c 128.00 μM; for IC50: MTT, mean ± SD (n = 3); for activity on the normal cell line LX-2: in words
# Protocol: as §1, with “Adriamycin was used as a positive control.” left out
# [6] = test system: HepG2 (hepatoma cancer); test: MTT cytotoxicity assay, HepG2 cells; format: cell-based, human; conditions: Homo sapiens; for inhibition at 1 µM / inhibition at 2 µM / inhibition at 4 µM / inhibition at 8 µM / inhibition at 16 µM / inhibition at 32 µM / inhibition at 64 µM / inhibition at 128 µM: HepG2, 72 h, three replicates, read-out: cell inhibition; for inhibition at 1 µM: HepG2, c 1.00 μM; for inhibition at 2 µM: HepG2, c 2.00 μM; for inhibition at 4 µM: HepG2, c 4.00 μM; for inhibition at 8 µM: HepG2, c 8.00 μM; for inhibition at 16 µM: HepG2, c 16.00 μM; for inhibition at 32 µM: HepG2, c 32.00 μM; for inhibition at 64 µM: HepG2, c 64.00 μM; for inhibition at 128 µM: HepG2, c 128.00 μM; for IC50: HepG2, MTT, 72 h, mean ± SD (n = 3)
# Protocol: as §1
SMILES,"cell inhibition against three human cancer cell lines, in words [2]",IC50 [2] [µM],inhibition at 1 µM [3] [%],inhibition at 2 µM [3] [%],inhibition at 4 µM [3] [%],inhibition at 8 µM [3] [%],inhibition at 16 µM [3] [%],inhibition at 32 µM [3] [%],inhibition at 64 µM [3] [%],inhibition at 128 µM [3] [%],IC50 [3] [µM],inhibition at 1 µM [4] [%],inhibition at 2 µM [4] [%],inhibition at 4 µM [4] [%],inhibition at 8 µM [4] [%],inhibition at 16 µM [4] [%],inhibition at 32 µM [4] [%],inhibition at 64 µM [4] [%],inhibition at 128 µM [4] [%],IC50 [4] [µM],other results
CN[C@H](CC(C)C)C(=O)N[C@H]1C(=O)N[C@@H](CC(N)=O)C(=O)N[C@H]2C(=O)N[C@H]3C(=O)N[C@H](C(=O)N[C@H](C(=O)O)c4cc(O)cc(O)c4-c4cc3ccc4O)[C@H](O)c3ccc(c(Cl)c3)Oc3cc2cc(c3O[C@@H]2O[C@H](CO)[C@@H](O)[C@H](O)[C@H]2O[C@H]2C[C@](C)(N)[C@H](O)[C@H](C)O2)Oc2ccc(cc2Cl)[C@H]1O [Vancomycin],–,–,–,–,–,–,–,–,–,–,–,–,–,–,–,–,–,–,–,–,MIC [1]: 1.25 µg/mL
"CC(C)[C@@H](C)/C=C/[C@@H](C)[C@H]1CCC(=O)[C@]23CC(=O)C4=CC(=O)CC[C@]4(C)[C@H]2CC[C@]13C [compound 7, dankasterone A]",good cell inhibition,3.6 to 15.8,16.3,31.1,46.5,58.4,69.7,90.9,96.1,99.2,6.7 ± 0.7,35.5,47.2,64.9,72.1,81,98.2,97.5,98.3,3.6 ± 1.1,inhibition at 1 µM [5]: 14.7%; inhibition at 2 µM [5]: 18.4%; inhibition at 4 µM [5]: 26.4%; inhibition at 8 µM [5]: 31.4%; inhibition at 16 µM [5]: 33.1%; inhibition at 32 µM [5]: 43.2%; inhibition at 64 µM [5]: 81.3%; inhibition at 128 µM [5]: 92.6%; IC50 [5]: > 40 µM; activity on the normal cell line LX-2 [5]: not active; inhibition at 1 µM [6]: 31.1%; inhibition at 2 µM [6]: 39.6%; inhibition at 4 µM [6]: 49%; inhibition at 8 µM [6]: 76.9%; inhibition at 16 µM [6]: 83.3%; inhibition at 32 µM [6]: 98%; inhibition at 64 µM [6]: 99%; inhibition at 128 µM [6]: 98.5%; IC50 [6]: 4.9 ± 0.9 µM
"CC(C)[C@@H](C)C=C[C@@H](C)[C@H]1CC[C@@]2(O)C3=CC(=O)C4=CC(=O)CC[C@]4(C)[C@H]3CC[C@]12C [compound 8, 14α-hydroxyergosta-4,7,22-triene-3,6-dione]",good cell inhibition,3.6 to 15.8,21.4,30.2,44.3,46.8,81.4,85.3,92.4,97.3,8.3 ± 0.5,21.5,26.3,35.6,47.3,72.4,89.1,97.3,96.2,11.4 ± 0.3,inhibition at 1 µM [5]: 13.6%; inhibition at 2 µM [5]: 19.2%; inhibition at 4 µM [5]: 28%; inhibition at 8 µM [5]: 35.9%; inhibition at 16 µM [5]: 41.6%; inhibition at 32 µM [5]: 48.5%; inhibition at 64 µM [5]: 73.4%; inhibition at 128 µM [5]: 90.3%; IC50 [5]: > 40 µM; activity on the normal cell line LX-2 [5]: not active; inhibition at 1 µM [6]: 20.3%; inhibition at 2 µM [6]: 27.1%; inhibition at 4 µM [6]: 34.1%; inhibition at 8 µM [6]: 46.7%; inhibition at 16 µM [6]: 58.6%; inhibition at 32 µM [6]: 78.4%; inhibition at 64 µM [6]: 89%; inhibition at 128 µM [6]: 94.3%; IC50 [6]: 15.8 ± 1.3 µM
